# In patent US6869788B2, “DNA encoding novel D-aminoacylase and process for producing D-amino acid by using the same” (Mitsui Chemicals, Inc., priority 2001, dated 2005):
# B1: D-aminoacylase: the D-aminoacylase according to this invention, whose physical properties are listed; source strain not stated at that place (protein, listed as Methylobacterium mesophilicum)
# chain: MTDSTRKHDLIIRGGTVIDGRRTPRFRADVAVRDGRLSAIGDLADHRAAQEIDATGRIVAPGFIDSHTHDDQAVLSQPQIPFKVSQGVTTVIAGNCGISAAPLRRDMDLPMPLNLIDVPAEERFTRFADYLDALRARPSSVNVAAMVGHSTLRAVTMPALDREANSEEIARMRALVQEAMDAGAIGVSTGTFYPPAVKATTEEIIEVCRPLTAAGGLYVTHMRDESDQVMTSLEETFRIGRALDVPVVVSHHKVQNTPNFGKSQVTLPFIREAMQRQRVCLDCYPYTAGSTMIRADRGMLEGRVLIAESLPHPECAGRDLDDIARDWGVDRVEAARRLQPGSAIYFLMDEGDVQRILAFDDTMIGSDGIPVGSKPHPRLWGTFPRVLGHYSRDVGLFPLETAVWKMTGLTARNFGLHGRGTLEAGQAADIVVFDAGTVRDAADYAEPTRPAEGIDAVIVNGAITWQGGQHTGARQGQVIRRQAAPSH
# Tested on: not listed separately
# Assay: Physical properties of the D-aminoacylase (optimal pH, optimal temperature, thermal stability)
# Type: physicochemical
# Settings: not given
row,Molecule,Optimal temperature
1,B1,60° C.;

# Same assay, conditions: after heating at 40° C. for 20 hours
row,Molecule,Thermal stability: remaining activity [% remaining activity]
1,B1,80

# Tested on: D-aminoacylase derived from Methylobacterium mesophilicum MT 10894 (FERM BP-7856)
# Assay: Substrate specificity of E. coli transformed by the DNA containing the D-aminoacylase gene to N-acetyl-DL-amino acids
# Type: biochemical
# Settings: substrate 5 g/L, 40° C., 16 hours; activity with N-acetyl-DL-tryptophan as substrate = 100
# Description: Reactivity and an optical purity were evaluated by analyzing a D-amino acid produced in a reaction and a remaining N-acylamino acid by high performance liquid chromatography (column: CROWNPAK CR(−); Daicel Chemical Industries, Ltd.); column temperature: 40° C.; mobile phase: HClO4 aq. pH 1.5 and 0 to 15% methanol (v/v); flow rate 0.8 mL/min, detection: 210 nm).
# E. coli transformed by the plasmid shown in FIG. 1 in Example 7 was subject to shaking culture in an LB medium containing ampicillin (50 μg/mL) at 37° C. overnight. After culturing, the bacterial cells were harvested by centrifugation and washed with a 0.1 M phosphate buffer (pH 7.8). The bacterial cells were suspended in a 0.1 M phosphate buffer (pH 7.8).
# Substrate specificity of E. coli transformed by the plasmid shown in FIG. 1 in Example 7 was compared for N-acetyl-DL-amino acids. In this example, the reaction was conducted at a substrate N-acetyl-DL-amino acid concentration of 5 g/L at 40° C. for 16 hours. Relative activities to a variety of N-acetyl-DL-amino acids together with optical purities and reaction yields were determined, assuming that D-aminoacylase activity was 100 when N-acetyl-DL-tryptophan was a substrate.
row,Molecule,Relative activity (%)
1,CC(=O)NC(Cc1ccc(O)cc1)C(=O)O (racemic) [N-acetyl-DL-tyrosine],67
2,CC(=O)NC(Cc1ccc(F)cc1)C(=O)O (racemic) [N-acetyl-DL-4-fluorophenylalanine],99
3,CC(=O)NC(Cc1c[nH]c2ccc(O)cc12)C(=O)O (racemic) [N-acetyl-DL-5-hydroxytryptophan],80
4,CC(=O)NC(COCc1ccccc1)C(=O)O (racemic) [N-acetyl-DL-o-benzylserine],30
5,CC(=O)NC(Cc1ccccc1)C(=O)O (racemic) [N-acetyl-DL-phenylalanine],104
6,CC(=O)NC(Cc1ccc(Cl)cc1)C(=O)O (racemic) [N-acetyl-DL-4-chlorophenylalanine],89
7,CC(=O)NC(Cc1c[nH]c2ccccc12)C(=O)O (racemic) [N-acetyl-DL-tryptophan],100
8,CC(=O)NC(CCc1ccccc1)C(=O)O (racemic) [N-acetyl-DL-homophenylalanine],45
